Some test systems named below: A498; BT-549; CAKI-1; COLO 205; HCC 2998; HL-60; HT-29; K562; NCI-H226; NCI-H522; OVCAR-3; OVCAR-8; PC-3; RPMI-8226; SF-295; SK-MEL-2; SNB-19; UACC-257; UO-31.
What all share (test): inhibition of tumour cell growth, NCI panel, 48 h

SMILES strings stand for the structures.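 Step 1: Grow cells in 96-well plates. Step 2: Expose to compound for 48 hours at 5 concentrations. Step 3: Interpolate endpoints linearly; if unreached, use highest concentration. GI50 marks 50% less growth.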 The source made the active and inactive calls. Rule as the data show it: active = GI50 up to about 1.1 µM and inactive = higher.

Regarding `COc1cc2c(/C=C3/C(=O)N(C)c4ccc(O)cc43)c(Cl)[nH]c2cc1C`, the GI50 was 2.06 µM (inactive) in the test with A498; 0.811 µM (active) in the test with BT-549; 0.394 µM (active) in the test with CAKI-1; 0.414 µM (active) with COLO 205; 0.373 µM (active) with HCC 2998; 0.281 µM (active) with HL-60. The GI50 in the test with HT-29 is 0.401 µM (active); in the test with K562, 0.124 µM (active); in the test on NCI-H226 it was 0.516 µM (active); in the test with NCI-H522 it was 0.404 µM (active); with OVCAR-3, 0.246 µM (active); in the test on OVCAR-8 it was 0.597 µM (active). Moreover, the GI50 in the test on PC-3 is 1.38 µM (inactive); in the test on RPMI-8226, 0.35 µM (active); with SF-295, 0.262 µM (active); in the test with SK-MEL-2 it was 0.641 µM (active); with SNB-19, 0.456 µM (active); in the test on UACC-257, 2.25 µM (inactive). Further, in the test on UO-31, the GI50 was 1.64 µM (inactive).
As for `O=C(N/N=C\c1cccc2c([N+](=O)[O-])cccc12)Nc1ccccc1`, the GI50 is 16.5 µM (inactive) in the test with A498; 8.95 µM (inactive) with BT-549; 12.5 µM (inactive) in the test on CAKI-1; 18.5 µM (inactive) with COLO 205; 15.1 µM (inactive) with HCC 2998; 14.7 µM (inactive) in the test on HL-60. Moreover, the GI50 in the test with HT-29 was 14.8 µM (inactive); in the test on K562, 5.85 µM (inactive); in the test on NCI-H226, 13.6 µM (inactive); in the test on NCI-H522, 14.6 µM (inactive); with OVCAR-3 it was 14.2 µM (inactive); in the test on OVCAR-8 it was 12 µM (inactive). In addition, the GI50 in the test with PC-3 is 14.8 µM (inactive); in the test on RPMI-8226, 14.7 µM (inactive); in the test on SF-295 it was 13.9 µM (inactive); in the test on SK-MEL-2, 2.27 µM (inactive); with SNB-19, 14.6 µM (inactive); in the test with UACC-257, 19.5 µM (inactive). For the same compound, the GI50 in the test with UO-31 was 13.2 µM (inactive).
As to `CC(C)(C)OC(=O)NC(CS(=O)(=O)O)C(=O)O` (configuration not stated), the GI50 in the test with A498, in the test with BT-549, in the test with CAKI-1, with COLO 205, in the test on HCC 2998 and in the test on HL-60 was > 100 µM (inactive) in each case. Moreover, the GI50 with HT-29, with K562, with NCI-H226, in the test with NCI-H522, in the test on OVCAR-3 and with OVCAR-8 was > 100 µM (inactive) each time. Also, the GI50 in the test with PC-3, in the test with RPMI-8226, in the test on SF-295, in the test on SK-MEL-2, in the test on SNB-19 and in the test on UACC-257 was > 100 µM (inactive) each time. Further, the GI50 in the test with UO-31 is > 100 µM (inactive).
As for `CC(C)(CN1CCCCC1)C(=O)CC(SCCS(=O)(=O)O)c1ccc(Cl)c(Cl)c1` (configuration not stated), the GI50 in the test on A498 is 3.56 µM (inactive); with BT-549 it was 2.9 µM (inactive); in the test on CAKI-1, 2.97 µM (inactive); in the test with COLO 205, 2.58 µM (inactive); in the test on HCC 2998, 13 µM (inactive); with HL-60, 3.46 µM (inactive). Besides, the GI50 in the test with HT-29 was 3.08 µM (inactive); in the test with K562 it was 2.42 µM (inactive); in the test on NCI-H226, 20 µM (inactive); in the test on NCI-H522, 3.19 µM (inactive); with OVCAR-3, 2.37 µM (inactive); with OVCAR-8, 2.75 µM (inactive). In addition, the GI50 in the test with PC-3 is 4.94 µM (inactive); in the test on RPMI-8226 it was 4.01 µM (inactive); with SF-295 it was 3.25 µM (inactive); with SK-MEL-2, 24 µM (inactive); in the test with SNB-19, 10.4 µM (inactive); in the test on UACC-257, 5.94 µM (inactive). Also, in the test on UO-31, the GI50 is 4.91 µM (inactive).
For the compound `COc1ccc2cc(CNCCCN3CCN(CCCNCc4ccc5cc(OC)ccc5c4)CC3)ccc2c1`, the GI50 with A498 is 1.66 µM (inactive); with BT-549, 1.78 µM (inactive); in the test with CAKI-1, 1.78 µM (inactive); with COLO 205, 1.4 µM (inactive); in the test with HCC 2998 it was 0.24 µM (active); with HL-60, 0.24 µM (active). The GI50 is 0.49 µM (active) in the test with HT-29; 0.198 µM (active) in the test with K562; 1.91 µM (inactive) with NCI-H226; 2.24 µM (inactive) in the test with NCI-H522; 1.63 µM (inactive) in the test on OVCAR-3; 1.73 µM (inactive) in the test with OVCAR-8. Moreover, the GI50 in the test on PC-3 is 0.966 µM (active); in the test with RPMI-8226, 0.276 µM (active); in the test on SF-295 it was 1.68 µM (inactive); in the test with SK-MEL-2, 1.93 µM (inactive); in the test with SNB-19 it was 1.76 µM (inactive); with UACC-257, 2.22 µM (inactive). In addition, the GI50 in the test with UO-31 is 1.76 µM (inactive).
In the case of `COc1cc([N+](=O)[O-])cc2c1NC(=O)C2(C)SC` (configuration not stated), the GI50 in the test on A498 was > 100 µM (inactive); in the test with BT-549 it was > 100 µM (inactive); in the test on CAKI-1, > 100 µM (inactive); with COLO 205 it was > 100 µM (inactive); in the test with HCC 2998, > 100 µM (inactive); with HL-60, 18.3 µM (inactive). Moreover, the GI50 with HT-29 is > 100 µM (inactive); in the test with K562, 34.4 µM (inactive); with NCI-H226, > 100 µM (inactive); with NCI-H522 it was > 100 µM (inactive); with OVCAR-3, 77.3 µM (inactive); in the test with OVCAR-8, > 100 µM (inactive). In addition, the GI50 in the test with PC-3 is > 100 µM (inactive); with RPMI-8226, > 100 µM (inactive); in the test with SF-295, 63.7 µM (inactive); in the test on SK-MEL-2, 60.7 µM (inactive); with SNB-19 it was > 100 µM (inactive); in the test on UACC-257, > 100 µM (inactive). Besides, the GI50 in the test with UO-31 was > 100 µM (inactive).
Regarding `OC(C1=C/C(=C\c2ccncc2)c2ccccc21)c1ccncc1` (configuration not stated), the GI50 with A498 was 12.9 µM (inactive); with BT-549, 19 µM (inactive); with CAKI-1 it was 7.83 µM (inactive); in the test with COLO 205, 14.5 µM (inactive); in the test on HCC 2998, 8.39 µM (inactive); with HL-60 it was 1.66 µM (inactive). Further, the GI50 in the test on HT-29 was 11.8 µM (inactive); in the test with K562, 4.72 µM (inactive); in the test with NCI-H226, 13.6 µM (inactive); with NCI-H522 it was 9.48 µM (inactive); with OVCAR-3, 11.1 µM (inactive); in the test with OVCAR-8 it was 22.2 µM (inactive). Also, the GI50 with PC-3 was 10.8 µM (inactive); with RPMI-8226, 2.37 µM (inactive); in the test on SF-295, 8.65 µM (inactive); in the test on SK-MEL-2, 14.3 µM (inactive); in the test on SNB-19, 19.1 µM (inactive); in the test on UACC-257 it was 6.34 µM (inactive). In the test on UO-31, the GI50 is 8.99 µM (inactive).
With `CN1c2ccc(O)c(O)c2-c2cc(O)cc3c2C1CCC3` (configuration not stated), the GI50 in the test with A498 is > 76.2 µM (inactive); in the test with BT-549, 17.3 µM (inactive); in the test with CAKI-1, 20.3 µM (inactive); with COLO 205 it was 20.7 µM (inactive); in the test on HCC 2998, 20.5 µM (inactive); with HL-60, 14.6 µM (inactive). In addition, the GI50 in the test on HT-29 is 19.1 µM (inactive); with K562 it was 14.4 µM (inactive); with NCI-H226, 27.9 µM (inactive); in the test on NCI-H522, 4.5 µM (inactive); in the test with OVCAR-3, 4.55 µM (inactive); in the test on OVCAR-8, 19.1 µM (inactive). For the same compound, the GI50 in the test on PC-3 is 19.2 µM (inactive); with RPMI-8226, 3.31 µM (inactive); with SF-295, 57.7 µM (inactive); with SK-MEL-2, 24 µM (inactive); with SNB-19, 63.5 µM (inactive); in the test with UACC-257, 19.1 µM (inactive). Also, the GI50 in the test on UO-31 was 13.6 µM (inactive).

The values above are taken from ChEMBL document CHEMBL1201862, “PubChem BioAssay data set” (2004).
